US20010031790A1, “Treatment for complications of type 2 diabetes” (priority 1999, published 2001)
“Also recorded” adds a separate entry of the source. Marks after values point to notes of the source that are not given here.

Test: Clinical comparison of patient groups: plasma MG, D-lactate and HbA1c in type 2 diabetic subjects receiving low or high daily dosages of metformin
Format: in vivo, human
Conditions: for DL (D-lactate) / HbA1c / MG (plasma methylglyoxal level): diabetic subjects
From the text: The differences noted above are shown in the following summary of clinical results utilizing patient groups of individuals free of diabetes, those having diabetes but receiving no metformin, those having diabetes and receiving one gram or less of metformin daily and those receiving more than a gram of metformin daily, respectively. In Table 1, the number of patients in each group is noted as are the levels of plasma MG, DL(D-lactate) and […] (HbA1c).

CN(C)C(=N)N=C(N)N [Metformin, N,N-dimethylimidocarbonimide diamide]
DL (D-lactate) (metformin >1 g/day, n=13): 13.4 ± 4.6^c μmol/l | HbA1c (metformin >1 g/day, n=13): 8.3 ± 1.0% | MG (plasma methylglyoxal level) (metformin >1 g/day, n=13): 158.4 ± 44.2^b nmol/l | DL (D-lactate) (metformin ≦1 g/day, n=17): 13.8 ± 7.7^c μmol/l | HbA1c (metformin ≦1 g/day, n=17): 8.0 ± 1.1% | MG (plasma methylglyoxal level) (metformin ≦1 g/day, n=17): 210.9 ± 51.0 nmol/L | plasma level of MG, result in words (group taking high dosages of metformin, versus low dosage group and diabetics without metformin): significant lowering of plasma levels of MG; also recorded: significantly lower plasma level of MG | difference in glycemic control between high and low dosages (high versus low dosage groups of metformin): little difference in glycemic control | levels of D-lactate, result in words (metformin administration versus diabetic control group receiving no metformin, no significant difference between high and low dosages): increased
